The values that follow come from patent US11014876B2, “Polyamine sulfonamides and uses thereof” (University of Florida Research Foundation, Inc., priority 2015, dated 2021).

Molecules are shown by their SMILES.

Data set [1] deals with AML leukemia stem cell (LSC) population (CD34+CD38-CD123+). The data set can be described thus: AML-LSC toxicity vs. AML total toxicity in fresh primary leukemia bone marrow mononuclear cells. Type of data set: cell-based, human. The following applies: for killing of AML LSC population versus total AML cell population: single dose, single time point, FIG. 1; for depletion of leukemia stem cells: single-dose treatment, FIG. 3. How it is done:
FIG. 1. Comparing average AML-LSC toxicity vs. AML total toxicity. Fresh human primary leukemia bone marrow mononuclear cells were treated with single doses of compounds 2470-23 and 2470-51 at a single time point and the killing of the leukemia stem cell (LSC) population (defined as CD34+CD38-CD123+) was quantified versus the total AML cell population.
(§1) The values given for percent toxicity to KG-1 cells is normalized to DMF. To compare the average AML-LSC toxicity vs. AML total toxicity, fresh human primary leukemia bone marrow mononuclear cells were treated with single doses of compounds, 2470-23 and 2470-51, at a single time point, and the killing of the AML leukemia stem cell (LSC) population versus the total AML cell population was quantified (FIG. 1). […] Next, AML-LSC toxicity versus T lymphocyte (Jurkat) toxicity was investigated. […] The single-dose treatments of 2470-23 and 2470-51 on normal healthy blood stem cells (sourced from fresh umbilical cord blood) versus AML LSC were also compared.

The test system of data set [2] is normal healthy blood stem cells (fresh umbilical cord blood). The data set can be described thus: Cord blood stem cell toxicity. Particulars: single-dose treatment; FIG. 3. Type of data set: cell-based, human. As to the method:
FIG. 3. Comparison of average AML-LSC toxicity vs. cord blood stem cell toxicity. The single-dose treatments of 2470-23 and 2470-51 on normal healthy blood stem cells (sourced from fresh umbilical cord blood) and AML LSC were compared.
as §1

Data set [3] concerns KG-1 cell lines (human acute myeloid leukemia cells). The data set can be described thus: AML cell (KG1) toxicity in AML-BMEC co-culture high-throughput screening assay. The format is cell-based. Particulars: percent toxicity to KG-1 cells normalized to DMF. As to the method: FIG. 4. Schematic of high throughput screening assay. AML cells are cultured on bone marrow derived endothelial cells. After 24 hours of exposure to compound treatment, the AML cells and endothelial cells are analyzed for viability using flow cytometry for 7-AAD and annexin. The phase contrast micrographs in the bottom portion of this figure are representative of untreated control and drug treated conditions. In the control situation, spindle shaped endothelial cells appear under the round shaped AML cells. In the drug treated conditions, some compounds disrupt the spindle shaped endothelial cells and lead to their detachment and death. […] This is optimal because of the high toxicity to the malignant cells and low toxicity to stromal cells. Stromal cell viability represents safety.
as §1

The subject of data set [4] is lymphoid (CD4+ Jurkat) versus myeloid (AML LSC) leukemia cells. Description: AML-LSC toxicity vs. Jurkat toxicity. Type of data set: cell-based, human. The following applies: single-dose treatment; FIG. 2. How it is done: FIG. 2. Comparison of average AML-LSC toxicity vs. Jurkat toxicity.
as §1

For a further data set, the target named is T1, alpha-enolase (Homo sapiens, UniProt P06733).
T1 construct: endogenous in cells; host or cells: KG-1, primary AML cells (816, LPP4), CD34+ cells; lysates
Description: Proteomic target identification (pronase protection, MS/MS). Type of data set: binding. The following applies: FIG. 7A. As to the method: FIG. 6. This schematic illustrates the proteomics work flow in identifying protein targets for the compounds. AML cells (KG-1, AML 1:816, AML 2:LPP4) and health hematopoietic stem/progenitor cells (CD34+) were lysed and then mixed with either vehicle or a compound (e.g., 2470-51). Following compound-protein binding, pronase was used to cleave the proteins. Where the compound bound to proteins, this site was protected from pronase digestion. The peptides were then analyzed via gel-based target identification and label-free mass spectrometry.

A further data set has as its target CYP450 2C9 (Homo sapiens, UniProt P11712). Description: CYP450 inhibition 2C9. The format is in vitro ADME.
The nature of the next data set: Plasma protein binding. Type of data set: in vitro ADME.
A further data set is described as follows: Aqueous solubility. Type of data set: physicochemical. The following applies: aqueous medium.
Data set [5] deals with Primary human AML specimens (824, 872, 874). Description: Viability of primary human AML specimens. The format is cell-based. Particulars: 24 hours at 50 ng/mL; P<0.05; FIG. 5A.
Data set [6] can be described thus: Microsomal stability, rat. The format is in vitro ADME. The following applies: microsomes, read-out: Microsomal Stability, t1/2.
In the next data set the target is CYP450 2D6 (Homo sapiens, UniProt P10635). Description: CYP450 inhibition 2D6. The format is in vitro ADME.
Data set [7] has as its system bone marrow cells from healthy adults. The data set can be described thus: Viability of bone marrow cells from healthy adults. The format is cell-based, human. Particulars: FIG. 5B.
The target in the next data set is CYP450 3A4 (Homo sapiens, UniProt P08684). Description: CYP450 inhibition 3A4. The format is in vitro ADME.
A further data set can be described thus: PAMPA. Type of data set: in vitro ADME. (The PAMPA barrier holds no transporters, so it reflects passive diffusion.)
Data set [8] concerns enolase. The data set can be described thus: Enolase protein expression in AML cells. The following applies: FIG. 8A. Type of data set: cell-based, human. An excerpt:
(§2) FIG. 8A. Enolase protein expression. […] Thus, enolase correlates with malignant transformation, but is not changed by applying compounds of the present invention. FIG. 8B. Effect of compounds on enolase enzyme activity.

The nature of data set [9]: Microsomal stability, mouse. The format is in vitro ADME. The following applies: microsomes, read-out: Microsomal Stability, t1/2.
Data set [10] has as its target enolase (Homo sapiens, UniProt P06733). Description: Enolase enzyme activity. The format is biochemical. The following applies: FIG. 8B.
Description: as §2

A short description of a further data set: Human plasma half-life. The format is in vitro ADME.
A short description of data set [11]: Microsomal stability, human. Type of data set: in vitro ADME. The following applies: microsomes, read-out: Microsomal Stability, t1/2.
In the next data set the test system is primary human AML cells. The data set can be described thus: AML engraftment in NRGS mice injected with primary human AML cells. Type of data set: in vivo. Particulars: 20 mg/kg IP TIW, two-week treatment, FIG. 9. As to the method: FIG. 9. […] Immunocompromised NRGS (NOD.CG-Rag1^tm1MomIl2rg^tm1Wjl (CMV-IL3, CSF2, KITLG) 1Eav/J) mice were given sub-lethal irradiation (200 cGy), followed by tail vein injection of primary human AML cells. At the end of four week, the animals were randomized into two-week treatment groups: vehicle-treated (PBS treatment control), cytarabine-treated 100 mg/kg IP TIW (positive treatment control), and 2470-51 20 mg/kg IP TIW. Bone marrows were examined for the presence of human CD45+ (green) and DAPI).

Chain of CYP450 2D6 (P10635 whole entry): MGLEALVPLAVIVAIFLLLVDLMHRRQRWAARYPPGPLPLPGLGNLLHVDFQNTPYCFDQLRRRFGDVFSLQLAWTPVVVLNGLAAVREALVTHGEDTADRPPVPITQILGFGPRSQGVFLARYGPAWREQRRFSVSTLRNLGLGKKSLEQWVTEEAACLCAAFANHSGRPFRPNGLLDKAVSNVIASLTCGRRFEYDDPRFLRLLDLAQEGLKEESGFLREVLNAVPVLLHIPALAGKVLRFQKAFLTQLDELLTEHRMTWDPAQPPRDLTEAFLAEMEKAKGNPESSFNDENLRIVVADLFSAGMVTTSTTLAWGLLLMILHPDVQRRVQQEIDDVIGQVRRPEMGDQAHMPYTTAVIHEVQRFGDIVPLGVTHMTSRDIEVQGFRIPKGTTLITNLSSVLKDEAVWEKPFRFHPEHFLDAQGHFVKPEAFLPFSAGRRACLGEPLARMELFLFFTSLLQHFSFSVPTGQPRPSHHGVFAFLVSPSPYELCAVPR
Chain of enolase (Homo sapiens, UniProt P06733) (P06733 whole entry): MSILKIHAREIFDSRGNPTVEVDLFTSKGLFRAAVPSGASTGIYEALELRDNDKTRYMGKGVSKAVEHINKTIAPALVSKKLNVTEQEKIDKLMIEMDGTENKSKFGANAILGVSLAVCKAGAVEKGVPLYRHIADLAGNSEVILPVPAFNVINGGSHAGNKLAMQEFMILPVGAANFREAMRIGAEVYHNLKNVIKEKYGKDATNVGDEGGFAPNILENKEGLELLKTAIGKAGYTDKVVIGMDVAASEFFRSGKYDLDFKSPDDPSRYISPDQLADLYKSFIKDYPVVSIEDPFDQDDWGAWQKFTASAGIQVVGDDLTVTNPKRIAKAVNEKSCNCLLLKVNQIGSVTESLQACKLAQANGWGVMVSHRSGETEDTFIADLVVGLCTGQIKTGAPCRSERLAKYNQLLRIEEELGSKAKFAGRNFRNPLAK
T1 sequence (P06733 whole entry): as above
Chain of CYP450 2C9 (P11712 whole entry): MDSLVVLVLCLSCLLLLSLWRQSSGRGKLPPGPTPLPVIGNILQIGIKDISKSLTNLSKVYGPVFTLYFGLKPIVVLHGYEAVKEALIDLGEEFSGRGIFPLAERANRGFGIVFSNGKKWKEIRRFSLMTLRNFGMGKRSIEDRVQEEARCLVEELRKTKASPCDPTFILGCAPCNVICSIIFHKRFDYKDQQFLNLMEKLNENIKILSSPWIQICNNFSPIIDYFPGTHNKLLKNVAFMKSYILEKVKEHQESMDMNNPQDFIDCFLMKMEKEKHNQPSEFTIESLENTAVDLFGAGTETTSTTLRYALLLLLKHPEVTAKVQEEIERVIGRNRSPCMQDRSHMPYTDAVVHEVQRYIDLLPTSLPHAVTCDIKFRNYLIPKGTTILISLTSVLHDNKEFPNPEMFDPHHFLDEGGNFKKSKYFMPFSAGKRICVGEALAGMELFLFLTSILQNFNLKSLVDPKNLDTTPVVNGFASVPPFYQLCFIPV
Chain of CYP450 3A4 (P08684 whole entry, the tested form may be a part): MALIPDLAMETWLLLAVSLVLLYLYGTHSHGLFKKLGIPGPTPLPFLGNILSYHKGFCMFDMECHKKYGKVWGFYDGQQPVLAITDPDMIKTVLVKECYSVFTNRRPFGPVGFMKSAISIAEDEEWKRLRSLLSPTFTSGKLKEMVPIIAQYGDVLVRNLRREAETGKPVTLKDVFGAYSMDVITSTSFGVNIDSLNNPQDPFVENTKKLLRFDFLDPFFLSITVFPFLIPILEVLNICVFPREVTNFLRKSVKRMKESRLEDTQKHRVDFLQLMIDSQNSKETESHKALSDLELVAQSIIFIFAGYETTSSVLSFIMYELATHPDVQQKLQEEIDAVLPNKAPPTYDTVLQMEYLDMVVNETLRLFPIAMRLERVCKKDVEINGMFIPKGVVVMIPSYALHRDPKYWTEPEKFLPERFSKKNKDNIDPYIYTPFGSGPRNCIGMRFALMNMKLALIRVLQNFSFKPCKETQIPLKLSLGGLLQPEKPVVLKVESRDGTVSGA

Consider `CC(C)[C@@H](CN)NC[C@@H](NS(=O)(=O)c1ccc(I)cc1)C(C)C` [Compound 2470-23], for which, in data set [1], the “killing of AML LSC population versus total AML cell population” value is reported as “selectively kills the AML LSC fraction” and the “depletion of leukemia stem cells” value is given as “do deplete the leukemia stem cells”. For the same compound, in data set [2], the “depletion of healthy cord blood stem cells” value was “do not deplete healthy stem cells”. The “KG1 toxicity (50 μg/mL)” value in data set [3] is recorded as 45.9%. Also, the “AML-LSC toxicity vs. Jurkat toxicity” value in data set [4] is recorded as “specificity of these compounds for AML”.

Consider `CC(C)[C@H](CN)NC[C@H](C)NS(=O)(=O)c1ccc2ccccc2c1` [Compound 2470-49], for which the “KG1 toxicity (50 μg/mL)” value in data set [3] was 46.7%.

Take `CC(C)[C@H](CN)NC[C@H](C)NS(=O)(=O)c1ccc(C(C)(C)C)cc1` [Compound 2470-51]: at alpha-enolase, the “binding to alpha-enolase peptide (MS/MS)” value is on record as “covalently bound”. For the same compound, the IC50 (as a rule, the concentration needed to halve the response being measured) at CYP450 2C9 was above 20 µM; at CYP450 2D6, 10.8 µM; on CYP450 3A4, above 20 µM. For the same compound, the unbound share (fraction unbound) (usually free concentration divided by total concentration) in the data set “Plasma protein binding” is 0.195. Besides, the “killing of AML LSC population versus total AML cell population” value in data set [1] is recorded as “selectively kills the AML LSC fraction”. Moreover, the “depletion of leukemia stem cells” value in data set [1] is recorded as “do deplete the leukemia stem cells”. Besides, in the data set “Aqueous solubility”, the solubility (commonly the dissolved amount per volume that the medium holds) is above 100 µM. Also, the “AML cell viability compared to vehicle-treated controls” value in [5] is on record as “significantly reduced AML cell viability”. In addition, the half-life in [6] is 9 min; in [9], 8 min; in “Human plasma half-life”, above 200 min; in data set [11], 33 min. The “cell viability of healthy adult bone marrow cells compared to vehicle control” value in data set [7] is listed as “did not reduce cell viability”. Also, the “depletion of healthy cord blood stem cells” value in [2] is given as “do not deplete healthy stem cells”. The PAMPA in “PAMPA” came out at 1 ×10⁻⁶ cm/s. In addition, the “PAMPA (grade in words)” value in “PAMPA” is “(moderate)”. Moreover, the “KG1 toxicity (50 μg/mL)” value in [3] is 93.2%. In addition, the “AML-LSC toxicity vs. Jurkat toxicity” value in [4] was “specificity of these compounds for AML”. Besides, the “enolase protein expression relative to vehicle” value with enolase [8] was “did not change protein expression”. Besides, the enolase enzymatic activity result on enolase [10] is “reduced in a dose-dependent fashion”. In addition, the “AML engraftment (human CD45+ in bone marrow)” value with primary human AML cells is on record as “significantly reduced AML engraftment”.

With `CC(C)[C@@H](CN)NC[C@H](C)NS(=O)(=O)c1ccc(C(C)(C)C)cc1` [Compound 2470-15], the “KG1 toxicity (50 μg/mL)” value in [3] is 38.4%.

For the compound `CC(C)C[C@H](CN)NC[C@H](CCO)NS(=O)(=O)c1ccc2ccccc2c1` [Compound 2470-40], the “KG1 toxicity (50 μg/mL)” value in [3] is listed as 37.4%.
